Data: patent US9999690B2, “Labeled compounds and methods of imaging, diagnosing cartilage disorders and diseases, and monitoring cartilage health using labeled and unlabeled compounds” (Perosphere Inc., priority 2013, dated 2018)

Assay: Tissue distribution of radioactivity by Quantitative Whole-Body Autoradiography (QWBA), Group 4
Type: in vivo
Conditions: rat
Procedure: A study was conducted to determine the pharmacokinetics, rates and routes of excretion with mass baseline and tissue distribution of radioactivity, after a single intravenous dose administration of formula XIII (also referred to as [^14C]DAP) was administered to the rats by tail vein intravenous injection at a
The study was conducted on 19 male rats divided into 4 groups. The first group of 6 rats was used for blood collection (Group 1); the second group of 4 rats was used for urine, feces, cage rinses and wipes and carcasses collection (Group 2); the third group of 4 rats was used for expired air collection (Group 3); the fourth group of 5 rats was used for terminal blood/serum and tissue distribution by Quantitative Whole-Body Autoradiography (QWBA) (Group 4).
For Group 4, formula XIII (QWBA was run at 1, 8, 12, 24 and 72 hours post dose. After terminal blood collection, each euthanized animal was frozen in a hexane/dry ice bath and embedded in a 2% carboxymethylcellulose matrix according to MPI Research SOP ADME-112. The embedded carcasses were sectioned according to MPI Research SOP ADME-113 on a Leica CM3600 Cyromacrotome set to maintain −10 to −30° C. At least four fortified quality control standards of known radioactive concentration were placed into the frozen block prior to sectioning and used for section thickness quality control. The quality control standards were sectioned under the same conditions as the specimen. The intrasection and intersection variation of collected sections were determined by analyzing the quality control standards. Section variation must be less than 20% for quantitative analysis. Sections that were approximately 40μm thick were taken in the sagittal plane. Appropriate sections selected at various levels of interest in the block were collected to encompass the following tissues, organs, and biological fluids, where possible: adrenal gland, bladder (urinary) and contents (urine), blood (cardiac), bone, bone marrow, brain, eye, fat (brown), fat (white), heart, kidney, large intestine/cecum and contents, liver, lung, muscle, pancreas, prostate, salivary glands, skin, small intestine and contents, spleen, stomach and contents, testes, thymus, thyroid, mesenteric lymph nodes, and epididymis. A set of sections were mounted, exposed to phosphor imaging screens and scanned using the Storm 860 image acquisition system according to MPI Research SOP ADME-112. Quantification, relative to the calibration standards, were performed by image densitometry using MCID™ image analysis software according to MPI Research SOP ADME-114. A standard curve was constructed from the integrated response (MDC/mm2) and the nominal concentrations of the [^14C]Glucose calibration standards. Relative error should be less than 0.5 for each point on the curve. The concentrations of radioactivity were expressed as μCi/g and were converted to μg or ng-equivalents of DAP per gram of sample (μg- or ng-eq/g) using the specific activity of administered [^14C]DAP dose formulation. A lower limit of quantification (LLOQ) was applied to the data. The LLOQ was determined using the radioactive concentration of the lowest calibration standard used to generate a calibration curve divided by the specific activity of the dose formulation (μCi/ug). Artifacts, such as those produced by dislodged contents of the alimentary canal, were excluded from analysis during image analysis.

SMILES: [2H]C1([2H])N(CCCNC(=O)[C@@H](N)CCCNC(=N)N)C([2H])([2H])C([2H])([2H])N(CCCNC(=O)[C@@H](N)CCCNC(=N)N)C1([2H])[2H] [formula XIII]
- distribution to cartilage and tissues (autoradiograph) (1 hour post dose, FIG. 1): distribute very well to cartilage and tissues
- localization in cartilage and tissues (autoradiograph) (after 8 hours, FIG. 2): no longer localized in all of the regions identifiable in FIG. 1
- Concentration of Radioactivity in Bone marrow (single IV 2 mg/kg, 1 Hour): 6820 ng Equivalents [^14C]DAP/g
- Concentration of Radioactivity in Cartilage (single IV 2 mg/kg, 1 Hour): 62602 ng Equivalents [^14C]DAP/g
- Concentration of Radioactivity in Kidney (single IV 2 mg/kg, 1 Hour): 51966 ng Equivalents [^14C]DAP/g
- Concentration of Radioactivity in Kidney (cortex) (single IV 2 mg/kg, 1 Hour): 55358 ng Equivalents [^14C]DAP/g
- Concentration of Radioactivity in Kidney (medulla) (single IV 2 mg/kg, 1 Hour): 19308 ng Equivalents [^14C]DAP/g
- Concentration of Radioactivity in Large intestinal contents (single IV 2 mg/kg, 1 Hour): BLQ (Below limit of quantitation (<172 ng equivalents [^14C]PER977/g))
- Concentration of Radioactivity in Liver (single IV 2 mg/kg, 1 Hour): 6377 ng Equivalents [^14C]DAP/g
- Concentration of Radioactivity in Small intestine (single IV 2 mg/kg, 1 Hour): 6838 ng Equivalents [^14C]DAP/g
- Concentration of Radioactivity in Thymus (single IV 2 mg/kg, 1 Hour): 10420 ng Equivalents [^14C]DAP/g
- Concentration of Radioactivity in Urinary bladder (single IV 2 mg/kg, 1 Hour): 26725 ng Equivalents [^14C]DAP/g
- Concentration of Radioactivity in Urine (single IV 2 mg/kg, 1 Hour): 195176 ng Equivalents [^14C]DAP/g
- Concentration of Radioactivity in Bone marrow (single IV 2 mg/kg, 8 Hours): 5524 ng Equivalents [^14C]DAP/g
- Concentration of Radioactivity in Cartilage (single IV 2 mg/kg, 8 Hours): 13038 ng Equivalents [^14C]DAP/g
- Concentration of Radioactivity in Kidney (single IV 2 mg/kg, 8 Hours): 43380 ng Equivalents [^14C]DAP/g
- Concentration of Radioactivity in Kidney (cortex) (single IV 2 mg/kg, 8 Hours): 45541 ng Equivalents [^14C]DAP/g
- Concentration of Radioactivity in Kidney (medulla) (single IV 2 mg/kg, 8 Hours): 3454 ng Equivalents [^14C]DAP/g
- Concentration of Radioactivity in Large intestinal contents (single IV 2 mg/kg, 8 Hours): 510 ng Equivalents [^14C]DAP/g
- Concentration of Radioactivity in Liver (single IV 2 mg/kg, 8 Hours): 3150 ng Equivalents [^14C]DAP/g
- Concentration of Radioactivity in Small intestine (single IV 2 mg/kg, 8 Hours): 6643 ng Equivalents [^14C]DAP/g
- Concentration of Radioactivity in Thymus (single IV 2 mg/kg, 8 Hours): 15093 ng Equivalents [^14C]DAP/g
- Concentration of Radioactivity in Urinary bladder (single IV 2 mg/kg, 8 Hours): 1429 ng Equivalents [^14C]DAP/g
- Concentration of Radioactivity in Urine (single IV 2 mg/kg, 8 Hours): 8374 ng Equivalents [^14C]DAP/g
- Concentration of Radioactivity in Bone marrow (single IV 2 mg/kg, 12 Hours): 4948 ng Equivalents [^14C]DAP/g
- Concentration of Radioactivity in Cartilage (single IV 2 mg/kg, 12 Hours): 7749 ng Equivalents [^14C]DAP/g
- Concentration of Radioactivity in Cerebellum (single IV 2 mg/kg, 12 Hours): BLQ (Below limit of quantitation (<172 ng equivalents [^14C]PER977/g))
- Concentration of Radioactivity in Cerebrum (single IV 2 mg/kg, 12 Hours): BLQ (Below limit of quantitation (<172 ng equivalents [^14C]PER977/g))
- Concentration of Radioactivity in Gastric mucosa (single IV 2 mg/kg, 12 Hours): 2118 ng Equivalents [^14C]DAP/g
- Concentration of Radioactivity in Kidney (single IV 2 mg/kg, 12 Hours): 40930 ng Equivalents [^14C]DAP/g
- Concentration of Radioactivity in Kidney (cortex) (single IV 2 mg/kg, 12 Hours): 48959 ng Equivalents [^14C]DAP/g
- Concentration of Radioactivity in Kidney (medulla) (single IV 2 mg/kg, 12 Hours): 2981 ng Equivalents [^14C]DAP/g
- Concentration of Radioactivity in Large intestinal contents (single IV 2 mg/kg, 12 Hours): 4752 ng Equivalents [^14C]DAP/g
- Concentration of Radioactivity in Liver (single IV 2 mg/kg, 12 Hours): 3330 ng Equivalents [^14C]DAP/g
- Concentration of Radioactivity in Medulla (single IV 2 mg/kg, 12 Hours): BLQ (Below limit of quantitation (<172 ng equivalents [^14C]PER977/g))
- Concentration of Radioactivity in Small intestine (single IV 2 mg/kg, 12 Hours): 9975 ng Equivalents [^14C]DAP/g
- Concentration of Radioactivity in Spinal cord (single IV 2 mg/kg, 12 Hours): BLQ (Below limit of quantitation (<172 ng equivalents [^14C]PER977/g))
- Concentration of Radioactivity in Stomach contents (single IV 2 mg/kg, 12 Hours): BLQ (Below limit of quantitation (<172 ng equivalents [^14C]PER977/g))
- Concentration of Radioactivity in Thymus (single IV 2 mg/kg, 12 Hours): 14584 ng Equivalents [^14C]DAP/g
- Concentration of Radioactivity in Urinary bladder (single IV 2 mg/kg, 12 Hours): 1095 ng Equivalents [^14C]DAP/g
